Test results published in patent US9439432B2, “Phenylisoxazoline-based compound having herbicidal activity and use thereof” (MOGHU RESEARCH CENTER LTD, priority 2011, dated 2016).

How the values were obtained:
Type in all cases: in vivo
[1] = test system: Alopecurus myosuroides; test: Pre-emergence treatment, herbicidal efficacy on blackgrass; conditions: 4 weeks after spraying, scale 0 to 10
Protocol: (§1) A rectangular plastic pot having a surface area of 300 cm^2 was filled with sandy loam soil and mixed bed soil which were mixed at a ratio of 1:1, and then, barnyardrass (Echinochloa crusgalli), large crabgrass (Digitaria sanguinalis), blackgrass (Alopecurus myosuroides), and annual bluegrass (Poa annua), which are grass weeds, were seeded thereto. In a pot that was prepared as described above, seeds of corn, soybean, cotton, wheat, and rice were seeded. The pots were irrigated, and one day after, chemicals were sprayed thereto. The spraying was performed by using a track sprayer (R&D Sprayer, USA) equipped with a Teejet 8002 (Spraying Systems Co., USA) nozzle, and a spraying amount was adjusted at 300 L/ha. A spraying solution was prepared by dissolving test materials or references in acetone and adding the same amount of 0.2%(v/v) tween 20 aqueous solution thereto. Application rates were 500, 250, 125, and 62.5 g/ha. The pots were placed in a greenhouse in which during day, the temperature was maintained at a temperature of 25 to 30° C., and during night, the temperature was maintained at a temperature of 15 to 25° C., and the pots were periodically irrigated. Four weeks after the spraying the test materials or References, effects and phytotoxicity of the respective weeds and crops were evaluated in a scale of 0 to 10 (0: no effects, 10: complete death), and results thereof are shown in Table 4 below.

[2] = test system: Corn; test: Post-emergence treatment, phytotoxicity to corn; conditions: post-emergence (about 3 leaf stage), 1,000 g/ha, 4 weeks after spraying, scale 0 to 10 (0: no effects, 10: complete death)
Protocol: as §1
(§2) Pots containing crops and weeds were prepared in the same manner as in Example 7, and then, in the second week in which crops and weeds entered into about 3 leaf stage, the test materials and the references were sprayed thereto in the same manner as described above. The rates were 1,000, 500, 250, and 125 g/ha. Four weeks after the spraying of the test materials or the references, herbicidal efficacy and phytotoxicity to the respective weeds and crops were evaluated in a scale of 0 to 10 (0: no effects, 10: complete death).

[3] = test system: Cotton; test: Pre-emergence treatment, phytotoxicity to cotton; conditions: 500 g/ha, 4 weeks after spraying, scale 0 to 10 (0: no effects, 10: complete death)
Protocol: as §1

[4] = test system: Digitaria sanguinalis; test: Pre-emergence treatment, herbicidal efficacy on large crabgrass; conditions: 4 weeks after spraying, scale 0 to 10
Protocol: as §1

[5] = test system: Poa annua; test: Pre-emergence treatment, herbicidal efficacy on annual bluegrass; conditions: 4 weeks after spraying, scale 0 to 10
Protocol: as §1

[6] = test system: Soybean; test: Pre-emergence treatment, phytotoxicity to soybean; conditions: 500 g/ha, 4 weeks after spraying, scale 0 to 10 (0: no effects, 10: complete death)
Protocol: as §1

[7] = test system: Echinochloa crusgalli; test: Pre-emergence treatment, herbicidal efficacy on barnyardgrass; conditions: 4 weeks after spraying
Protocol: as §1

[8] = test system: Digitaria sanguinalis; test: Post-emergence treatment, herbicidal efficacy on large crabgrass; conditions: 4 weeks after spraying, scale 0 to 10
Protocol: as §1, §2

[9] = test system: Rice; test: Post-emergence treatment, phytotoxicity to rice; conditions: post-emergence (about 3 leaf stage), 1,000 g/ha, 4 weeks after spraying, scale 0 to 10 (0: no effects, 10: complete death)
Protocol: as §1, §2

[10] = test system: Corn; test: Pre-emergence treatment, phytotoxicity to corn; conditions: 500 g/ha, 4 weeks after spraying, scale 0 to 10 (0: no effects, 10: complete death)
Protocol: as §1

[11] = test system: Alopecurus myosuroides; test: Post-emergence treatment, herbicidal efficacy on blackgrass; conditions: 4 weeks after spraying, scale 0 to 10
Protocol: as §1, §2

[12] = test system: Rice; test: Pre-emergence treatment, phytotoxicity to rice; conditions: 500 g/ha, 4 weeks after spraying, scale 0 to 10 (0: no effects, 10: complete death)
Protocol: as §1

[13] = test system: Cotton; test: Post-emergence treatment, phytotoxicity to cotton; conditions: post-emergence (about 3 leaf stage), 1,000 g/ha, 4 weeks after spraying, scale 0 to 10 (0: no effects, 10: complete death)
Protocol: as §1, §2

[14] = test system: Soybean; test: Post-emergence treatment, phytotoxicity to soybean; conditions: post-emergence (about 3 leaf stage), 1,000 g/ha, 4 weeks after spraying, scale 0 to 10 (0: no effects, 10: complete death)
Protocol: as §1, §2

[15] = test system: Echinochloa crusgalli; test: Post-emergence treatment, herbicidal efficacy on barnyardgrass; conditions: 4 weeks after spraying, scale 0 to 10
Protocol: as §1, §2

[16] = test system: Wheat; test: Post-emergence treatment, phytotoxicity to wheat; conditions: post-emergence (about 3 leaf stage), 1,000 g/ha, 4 weeks after spraying, scale 0 to 10 (0: no effects, 10: complete death)
Protocol: as §1, §2

[17] = test system: Poa annua; test: Post-emergence treatment, herbicidal efficacy on annual bluegrass; conditions: 4 weeks after spraying, scale 0 to 10
Protocol: as §1, §2

[18] = test system: Wheat; test: Pre-emergence treatment, phytotoxicity to wheat; conditions: 500 g/ha, 4 weeks after spraying, scale 0 to 10 (0: no effects, 10: complete death)
Protocol: as §1

[19] = 500 g/ha, scale 0 to 10 (0: no effects, 10: complete death)

Structure (SMILES): Cc1ccc(C2=NOC(C)(COCc3c(F)cccc3F)C2)cc1 (stereo not drawn) [Reference G]
- Herbicidal efficacy, Alopecurus myosuroides ([1]; 62.5 g/ha): 0
- Herbicidal efficacy, Alopecurus myosuroides ([1]; 125 g/ha): 0
- Herbicidal efficacy, Alopecurus myosuroides ([1]; 250 g/ha): 0
- Herbicidal efficacy, Alopecurus myosuroides ([1]; 500 g/ha): 3
- Phytotoxicity, Corn [2]: 0
- Phytotoxicity, Cotton [3]: 0
- Herbicidal efficacy, Digitaria sanguinalis ([4]; 62.5 g/ha): 1
- Herbicidal efficacy, Digitaria sanguinalis ([4]; 125 g/ha): 4
- Herbicidal efficacy, Digitaria sanguinalis ([4]; 250 g/ha): 8
- Herbicidal efficacy, Digitaria sanguinalis ([4]; 500 g/ha): 10
- Herbicidal efficacy, Poa annua ([5]; 62.5 g/ha): 1
- Herbicidal efficacy, Poa annua ([5]; 125 g/ha): 4
- Herbicidal efficacy, Poa annua ([5]; 250 g/ha): 8
- Herbicidal efficacy, Poa annua ([5]; 500 g/ha): 9
- Phytotoxicity, Soybean [6]: 0
- Herbicidal efficacy, Echinochloa crusgalli ([7]; 62.5 g/ha, scale 0 to 10): 0
- Herbicidal efficacy, Echinochloa crusgalli ([7]; 125 g/ha, scale 0 to 10): 3
- Herbicidal efficacy, Echinochloa crusgalli ([7]; 250 g/ha, scale 0 to 10): 7
- Herbicidal efficacy, Echinochloa crusgalli [7, 19]: 10
- Herbicidal efficacy, Digitaria sanguinalis ([8]; post-emergence, 125 g/ha): 0
- Herbicidal efficacy, Digitaria sanguinalis ([8]; post-emergence, 250 g/ha): 0
- Herbicidal efficacy, Digitaria sanguinalis ([8]; post-emergence, 500 g/ha): 4
- Herbicidal efficacy, Digitaria sanguinalis ([8]; post-emergence, 1,000 g/ha): 6
- Phytotoxicity, Rice [9]: 0
- Phytotoxicity, Corn [10]: 0
- Herbicidal efficacy, Alopecurus myosuroides ([11]; post-emergence, 125 g/ha): 0
- Herbicidal efficacy, Alopecurus myosuroides ([11]; post-emergence, 250 g/ha): 0
- Herbicidal efficacy, Alopecurus myosuroides ([11]; post-emergence, 500 g/ha): 2
- Herbicidal efficacy, Alopecurus myosuroides ([11]; post-emergence, 1,000 g/ha): 3
- Phytotoxicity, Rice [12]: 0
- Phytotoxicity, Cotton [13]: 0
- Phytotoxicity, Soybean [14]: 2
- Herbicidal efficacy, Echinochloa crusgalli ([15]; post-emergence, 125 g/ha): 0
- Herbicidal efficacy, Echinochloa crusgalli ([15]; post-emergence, 250 g/ha): 2
- Herbicidal efficacy, Echinochloa crusgalli ([15]; post-emergence, 500 g/ha): 5
- Herbicidal efficacy, Echinochloa crusgalli ([15]; post-emergence, 1,000 g/ha): 6
- Phytotoxicity, Wheat [16]: 0
- Herbicidal efficacy, Poa annua ([17]; post-emergence, 125 g/ha): 0
- Herbicidal efficacy, Poa annua ([17]; post-emergence, 250 g/ha): 1
- Herbicidal efficacy, Poa annua ([17]; post-emergence, 500 g/ha): 4
- Herbicidal efficacy, Poa annua ([17]; post-emergence, 1,000 g/ha): 6
- Phytotoxicity, Wheat [18]: 0

Structure (SMILES): CC1(COCc2c(F)cccc2Cl)CC(c2ccccc2)=NO1 (stereo not drawn) [Reference H]
- Herbicidal efficacy, Alopecurus myosuroides ([1]; 62.5 g/ha): 0
- Herbicidal efficacy, Alopecurus myosuroides ([1]; 125 g/ha): 0
- Herbicidal efficacy, Alopecurus myosuroides ([1]; 250 g/ha): 2
- Herbicidal efficacy, Alopecurus myosuroides ([1]; 500 g/ha): 9
- Phytotoxicity, Corn [2]: 0
- Phytotoxicity, Cotton [3]: 0
- Herbicidal efficacy, Digitaria sanguinalis ([4]; 62.5 g/ha): 0
- Herbicidal efficacy, Digitaria sanguinalis ([4]; 125 g/ha): 0
- Herbicidal efficacy, Digitaria sanguinalis ([4]; 250 g/ha): 2
- Herbicidal efficacy, Digitaria sanguinalis ([4]; 500 g/ha): 10
- Herbicidal efficacy, Poa annua ([5]; 62.5 g/ha): 0
- Herbicidal efficacy, Poa annua ([5]; 125 g/ha): 0
- Herbicidal efficacy, Poa annua ([5]; 250 g/ha): 2
- Herbicidal efficacy, Poa annua ([5]; 500 g/ha): 8
- Phytotoxicity, Soybean [6]: 0
- Herbicidal efficacy, Echinochloa crusgalli ([7]; 62.5 g/ha, scale 0 to 10): 0
- Herbicidal efficacy, Echinochloa crusgalli ([7]; 125 g/ha, scale 0 to 10): 0
- Herbicidal efficacy, Echinochloa crusgalli ([7]; 250 g/ha, scale 0 to 10): 2
- Herbicidal efficacy, Echinochloa crusgalli [7, 19]: 9
- Herbicidal efficacy, Digitaria sanguinalis ([8]; post-emergence, 125 g/ha): 0
- Herbicidal efficacy, Digitaria sanguinalis ([8]; post-emergence, 250 g/ha): 0
- Herbicidal efficacy, Digitaria sanguinalis ([8]; post-emergence, 500 g/ha): 1
- Herbicidal efficacy, Digitaria sanguinalis ([8]; post-emergence, 1,000 g/ha): 5
- Phytotoxicity, Rice [9]: 0
- Phytotoxicity, Corn [10]: 2
- Herbicidal efficacy, Alopecurus myosuroides ([11]; post-emergence, 125 g/ha): 0
- Herbicidal efficacy, Alopecurus myosuroides ([11]; post-emergence, 250 g/ha): 0
- Herbicidal efficacy, Alopecurus myosuroides ([11]; post-emergence, 500 g/ha): 0
- Herbicidal efficacy, Alopecurus myosuroides ([11]; post-emergence, 1,000 g/ha): 0
- Phytotoxicity, Rice [12]: 0
- Phytotoxicity, Cotton [13]: 0
- Phytotoxicity, Soybean [14]: 0
- Herbicidal efficacy, Echinochloa crusgalli ([15]; post-emergence, 125 g/ha): 0
- Herbicidal efficacy, Echinochloa crusgalli ([15]; post-emergence, 250 g/ha): 0
- Herbicidal efficacy, Echinochloa crusgalli ([15]; post-emergence, 500 g/ha): 0
- Herbicidal efficacy, Echinochloa crusgalli ([15]; post-emergence, 1,000 g/ha): 4
- Phytotoxicity, Wheat [16]: 0
- Herbicidal efficacy, Poa annua ([17]; post-emergence, 125 g/ha): 0
- Herbicidal efficacy, Poa annua ([17]; post-emergence, 250 g/ha): 0
- Herbicidal efficacy, Poa annua ([17]; post-emergence, 500 g/ha): 2
- Herbicidal efficacy, Poa annua ([17]; post-emergence, 1,000 g/ha): 4
- Phytotoxicity, Wheat [18]: 0
